Measurements reported in patent US10308615B2, “Heterocyclic compounds as inhibitors of Vanin-1 enzyme” (Pfizer Inc., priority 2015, dated 2019).

Legend:
[1] = biological target: T1, human vanin-1 (Homo sapiens (Human), UniProt O95497); assay: Human Vanin-1 Enzyme Assay 1; assay type: biochemical; settings: 25 pM human vanin-1, 50 uM pantetheine 7-amino-4-trifluoromethylcoumarin, 30 min preincubation, 60 min
Method: Human Vanin-1 Enzyme Assay 1.
(§1) The in vitro assay measures enzymatic cleavage of the fluorescently-labeled vanin substrate, pantetheine 7-amino-4-trifluoromethylcoumarin, by human vanin-1.
(§2) The vanin-1 protein was prepared in-house from a construct expressing the extracellular domain of human vanin-1 (GenBank ID NM_004666) preceded N-terminally by the honey bee melittin signal peptide, a GSG linker sequence, a His6X tag and a FLAG tag. The secreted, soluble enzyme was purified from the conditioned medium from a CHO cell line stably expressing the resulting protein. Enzyme purification was performed through sequential Ni NTA and size-exclusion chromatography steps.
The test inhibitors were solubilized in DMSO to a stock concentration of 30 mM. On the day of the assay, dose response plates were prepared by diluting the inhibitors in DMSO at compound concentration 200-fold the final in-assay concentration. Intermediate concentrations were prepared by diluting in DMSO in a four-fold series for a total of 11 data points.
To prepare a working solution of human vanin-1, the enzyme was diluted to 33.3 pM in the assay buffer consisting of 50 mM Tris-HCl pH=8.0, 50 mM KCl, 0.005% Brij-35 and […] cysteamine. To begin the assay 100 nL was transferred from the compound plate to the assay plate. Next, 15 μL of the vanin-1 working solution were transferred to the assay plate. The inhibitor and enzyme were incubated at room temperature for 30 minutes. The enzyme reaction was then initiated by the addition of 5 μL of 200 μM pantetheine 7-amino-4-trifluoromethylcoumarin prepared in assay buffer. The final concentrations in the assay were 25 pM human vanin-1 and 50 uM substrate. The final concentration of DMSO was 0.5%. The assay plates were incubated for 60 minutes and before they were read on a Perkin Elmer EnVision Model 2103 using a 405 nm excitation wavelength and a 510 nm emission wavelength for detection.

[2] = biological target: T1, human vanin-1; assay: Human Vanin-1 Enzyme Assay 3; assay type: biochemical; settings: 2 nM human vanin-1, 10 uM substrate, 15 min
Method: Human Vanin-1 Enzyme Assay 3.
as §1, §2
On the day of the assay, dose response plates were prepared by diluting the inhibitors in DMSO at compound concentration 100-fold the final in-assay concentration. Concentration series were prepared by serially diluting in DMSO in a two-fold series for a total of 11 data points. Intermediate compound plates containing compound in 10% DMSO were then created by diluting the compounds 10-fold in assay buffer consisting of 50 mM Tris-HCl pH=8.0, 50 mM KCl, 0.005% Brij-35 and 1.5 mM cysteamine. To begin the assay 3 μL were transferred from the intermediate compound plate to the assay plate.
A working solution of human vanin-1 was prepared by diluting the enzyme stock to 2.5 nM in assay buffer. Next, 24 μL of the vanin-1 working solution were transferred to the assay plate. The enzyme reaction was then initiated by the addition of 3 μL of 100 μM pantetheine 7-amino-4-trifluoromethylcoumarin prepared in 5 uM acetic acid. The final concentrations in the assay were 2 nM human vanin-1 and 10 uM substrate. The final concentration of DMSO was 1%. The assay plates were incubated at room temperature for 15 minutes and before they were read on a Tecan Safire using a 405 nm excitation wavelength and a 505 nm emission wavelength for detection.

T1 sequence (O95497 22-491): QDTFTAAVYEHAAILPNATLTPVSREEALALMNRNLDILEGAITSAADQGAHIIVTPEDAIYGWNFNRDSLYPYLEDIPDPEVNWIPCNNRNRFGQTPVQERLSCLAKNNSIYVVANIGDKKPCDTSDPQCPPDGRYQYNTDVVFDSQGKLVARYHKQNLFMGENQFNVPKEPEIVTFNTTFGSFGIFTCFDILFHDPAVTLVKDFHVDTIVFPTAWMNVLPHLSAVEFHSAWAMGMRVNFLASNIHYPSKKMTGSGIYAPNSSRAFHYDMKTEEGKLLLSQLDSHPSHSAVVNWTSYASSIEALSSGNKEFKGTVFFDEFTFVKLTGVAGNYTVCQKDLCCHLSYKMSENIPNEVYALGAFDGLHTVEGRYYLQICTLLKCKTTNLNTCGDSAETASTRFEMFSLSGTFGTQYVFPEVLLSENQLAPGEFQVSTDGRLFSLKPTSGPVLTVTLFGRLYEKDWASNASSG

| SMILES | IC50 [1] [nM] | IC50 [2] [nM] |
| --- | --- | --- |
| CS(=O)(=O)c1cccc(C(=O)c2cnc(NCc3ccc(F)cc3)nc2)c1 [Example 96, {2-[(4-fluorobenzyl)amino]pyrimidin-5-yl}[3-(methylsulfonyl)phenyl]methanone] | 14.2 | 415 |
| O=C(c1cnc(OCc2ccccc2)nc1)c1cccc(C(F)(F)F)c1 [Example 155, [2-(benzyloxy)pyrimidin-5-yl][3-(trifluoromethyl)phenyl]methanone] | > 20000 | > 1110 |
| O=C(c1cnc(NCc2ccccn2)nc1)c1ccc(F)c(C(F)(F)F)c1 [Example 80, [4-fluoro-3-(trifluoromethyl)phenyl]{2-[(pyridin-2-ylmethyl)amino]pyrimidin-5-yl}methanone] | 384 | 30.1 |
| O=C(c1cnc(NCc2cccnc2)nc1)c1ccc(F)c(F)c1 [Example 22, (3,4-difluorophenyl){2-[(pyridin-3-ylmethyl)amino]pyrimidin-5-yl}methanone] | 93.3 | 43.7 |
| NC(=O)c1ccc(CNc2ncc(C(=O)c3cccc(C(F)(F)F)c3)cn2)cn1 [Example 69, 5-[({5-[3-(trifluoromethyl)benzoyl]pyrimidin-2-yl}amino)methyl] pyridine-2-carboxamide] | 29.4 | 46.8 |
| O=C(c1cccc(Cl)c1)c1ccc(NCc2ccccc2)nn1 [Example 86, [6-(benzylamino)pyridazin-3-yl](3-chlorophenyl) methanone] | 14700 | 758 |
| O=C(c1ccccc1)c1cnc(NCc2ccccc2)nc1 [Example 99, [2-(benzylamino)pyrimidin-5-yl](phenyl) methanone] | 1680 | 537 |
| Cc1cccc(C(=O)c2cnc(NCc3ccncc3)nc2)c1 [Example 39, (3-methylphenyl){2-[(pyridin-4-ylmethyl)amino]pyrimidin-5-yl}methanone] | 467 | 660 |
| O=C(c1cnc(NCc2ccc(F)cc2)nc1)c1cc(F)cc(C(F)(F)F)c1 [Example 127, {2-[(4-fluorobenzyl)amino]pyrimidin-5-yl}[3-fluoro-5-(trifluoromethyl)phenyl]methanone] | 3950 | 36.2 |
| CCN1CCCC1CNc1ncc(C(=O)c2cccc(C(F)(F)F)c2)cn1 (stereo not drawn) [Example 165, (2-{[(1-ethylpyrrolidin-2-yl)methyl]amino}pyrimidin-5-yl)[3-(trifluoromethyl)phenyl]methanone] | 11900 | 6900 |
| O=C(c1cnc(NCc2ccccc2)nc1)c1ccc2c(c1)OCCO2 [Example 97, [2-(benzylamino)pyrimidin-5-yl](2,3-dihydro-1,4-benzodioxin-6-yl)methanone] | 4850 | 873 |
| O=C(c1cnc(OCc2ccc(F)cc2F)nc1)c1cccc(C(F)(F)F)c1 [Example 156, {2-[(2,4-difluorobenzyl)oxy]pyrimidin-5-yl}[3-(trifluoromethyl)phenyl]methanone] | > 20000 | > 1130 |
| COc1ccc(CNc2ncc(C(=O)c3ccc(C#N)cc3)cn2)cc1 [Example 79, 4-({2-[(4-methoxybenzyl)amino]pyrimidin-5-yl}carbonyl) benzonitrile] | 15100 | 348 |
| N#Cc1cccc(CNc2ncc(C(=O)c3cccc(C(F)(F)F)c3)cn2)c1 [Example 62, 3-[({5-[3-(trifluoromethyl)benzoyl]pyrimidin-2-yl}amino)methyl] benzonitrile] | 150 | > 123 |
| NC(=O)c1ccc(CNc2ncc(C(=O)c3ccc(F)c(F)c3)cn2)cc1 [Example 43, 4-({[5-(3,4-difluorobenzoyl)pyrimidin-2-yl]amino}methyl) benzamide] | 2220 | 490 |
| O=C(c1cnc(NCc2cccnc2)nc1)c1ccc(F)c(C(F)(F)F)c1 [Example 81, [4-fluoro-3-(trifluoromethyl)phenyl]{2-[(pyridin-3-ylmethyl)amino]pyrimidin-5-yl}methanone] | 3.4 | > 16.9 |
| CC(C)(Nc1ncc(C(=O)c2ccc(F)c(F)c2)cn1)c1ccccc1 [Example 44, (3,4-difluorophenyl){2-[(2-phenylpropan-2-yl)amino]pyrimidin-5-yl}methanone] | 508 | 105 |
| N#Cc1ccc(CNc2ncc(C(=O)c3ccc(F)c(C(F)(F)F)c3)cn2)cc1 [Example 84, 4-[({5-[4-fluoro-3-(trifluoromethyl)benzoyl]pyrimidin-2-yl}amino)methyl] benzonitrile] | 503 | 111 |
| O=C(c1ccccc1)c1cnc(NCc2ccccc2F)nc1 [Example 101, {2-[(2-fluorobenzyl)amino]pyrimidin-5-yl}(phenyl) methanone] | 804 | 150 |
| N#Cc1ccc(CNc2ncc(C(=O)c3cc(F)cc(C(F)(F)F)c3)cn2)cc1 [Example 94, 4-[({5-[3-fluoro-5-(trifluoromethyl)benzoyl]pyrimidin-2-yl}amino)methyl] benzonitrile] | 2200 | 987 |
| NC(=O)c1ccc(CNc2ncc(C(=O)c3ccccc3)cn2)cn1 [Example 107, 5-{[(5-benzoylpyrimidin-2-yl)amino]methyl} pyridine-2-carboxamide] | 906 | 751 |
| N#Cc1cccc(CNc2ncc(C(=O)c3cccc(C#N)c3)cn2)c1 [Example 64, 3-({[5-(3-cyanobenzoyl)pyrimidin-2-yl]amino}methyl) benzonitrile] | 99.2 | 74.4 |
| O=C(c1cccc(C(F)(F)F)c1)c1ccc(NCc2ccc(F)cc2F)nn1 [Example 92, {6-[(2,4-difluorobenzyl)amino]pyridazin-3-yl}[3-(trifluoromethyl)phenyl]methanone] | > 20000 | 566 |
| O=C(O)c1ccc(CNc2ncc(C(=O)c3ccc(F)c(C(F)(F)F)c3)cn2)cc1 [Example 89, 4-[({5-[4-fluoro-3-(trifluoromethyl)benzoyl]pyrimidin-2-yl}amino)methyl] benzoic acid] | 1000 | 615 |
| Cc1cccc(C(=O)c2cnc(NCc3ccc(C#N)cc3)nc2)c1 [Example 42, 4-({[5-(3-methylbenzoyl)pyrimidin-2-yl]amino}methyl) benzonitrile] | 1060 | 709 |
| N#Cc1cccc(CNc2ncc(C(=O)c3cccc(Cl)c3)cn2)c1 [Example 26, 3-({[5-(3-chlorobenzoyl)pyrimidin-2-yl]amino}methyl) benzonitrile] | 4170 | 63.2 |
| O=C(c1cnc(OCc2ccc(Cl)cc2)nc1)c1cccc(C(F)(F)F)c1 [Example 47, {2-[(4-chlorobenzyl)oxy]pyrimidin-5-yl}[3-(trifluoromethyl)phenyl]methanone] | > 5130 | > 729 |
| NC(=O)c1ccc(CNc2ncc(C(=O)c3ccc(F)c(C(F)(F)F)c3)cn2)cn1 [Example 70, 5-[({5-[4-fluoro-3-(trifluoromethyl)benzoyl]pyrimidin-2-yl}amino)methyl] pyridine-2-carboxamide] | 140 | 77.8 |
| COc1ccc(CNc2ncc(C(=O)c3ccc(Cl)cc3)cn2)cc1 [Example 63, (4-chlorophenyl){2-[(4-methoxybenzyl)amino]pyrimidin-5-yl}methanone] |  | 569 |
